One data set has as its system Lee. Nature of the data set: In vitro antiviral effect, MTT cell viability in infected MDCK cells. It counts as cell-based, influenza B virus. The conditions noted are these: 0.001 pfu/cell, 72 hours, hydroxyurea up to 1,561 μg/ml.
Another data set relates to H3N2 HongKong. The description is as above. As to conditions: 0.001 pfu/cell, 72 hours, hydroxyurea up to 1,561 μg/ml. It counts as cell-based, influenza A virus.
Another data set concerns H1N1 PR8. The description is as above. The class given is cell-based, influenza A virus. As to conditions: 0.001 pfu/cell, 72 hours, hydroxyurea up to 1,561 μg/ml.
Data set [1] concerns mice infected with H1N1 influenza A (PR8 strain) virus. It counts as in vivo, mice (BALB/c).
Data set [2] concerns mice infected with the WR strain of vaccinia virus. It counts as in vivo, BALB/c mice. The conditions noted are these: for survival: WR low (1×10^5 pfu) or high (1×10^7 pfu) dose, HU 50 mg/kg/day i.p. days 0 to 14, G-CSF 25 μg/kg/day i.p. days 0 to 5; for lung tissue histology: compared with other groups.
The test system of data set [3] is monkeys with systemic inflammatory syndrome induced by vaccinia virus VV^tk−. The class given is in vivo, cynomolgus monkeys. As for the experimental part: Male cynomolgus monkeys (n=3) aged 45 to 55 months were subjected to systemic administration of only VV^tk− (1×10^8 pfu), which induces a systemic inflammatory response, or both VV^tk− and hydroxyurea (VV^tk−: 1×10^8 pfu, HU: 80 mg/kg/day and 30 mg/kg/day). Then, toxicity was evaluated by measuring levels of systemic inflammation and pustules, body temperature, body weight, and the like.

Data set [4] concerns monkeys with systemic inflammatory syndrome induced by the Western Reserve strain of vaccinia virus.
The test system of another data set is mice given LPS. As to the kind of experiment: LPS-induced sepsis model (II), survival and ANC (Experimental Example 7). It counts as in vivo, BALB/c mice. The conditions noted are these: for survival: until day 12; for ANC: blood on day 12. The protocol: Twenty-one BALB/c mice (about 8 weeks old) were divided into 3 groups (LPS, LPS+HU_30, LPS+HU_60; n=7/group). All mice received intraperitoneal administration of LPS at 10 mg/kg on day 0. The mice of the group (LPS+HU_30) received hydroxyurea (30 mg/kg/day, from day -1 to day 3) once a day, and the mice of the group (LPS+HU_60) received hydroxyurea (60 mg/kg/day, from day -1 to day 3) twice a day. Survival of the mice of each group was measured until day 12 at 3-day intervals, and blood samples were collected on day 12 to check the absolute neutrophil count in blood.

Data set [5] concerns mouse model with sepsis induced by lipopolysaccharide (LPS, from Escherichia coli O55: B5). As to the kind of experiment: Bacterial LPS-induced sepsis model, survival (Experimental Example 1). It counts as in vivo, mice. As to conditions: LPS 10 mg/kg i.p., n=7. The protocol: To identify whether treatment with hydroxyurea could increase survival through an immune response in a mouse model with sepsis induced by lipopolysaccharide (LPS, from Escherichia coli O55: B5L2880, Sigma), an animal experiment was performed.
Each group consisted of 7 mice, and intraperitoneal administration of LPS was performed at 10 mg/kg on day 0. Two groups excluding a control group were subjected to intraperitoneal administration of hydroxyurea at 30 mg/kg once a day or twice a day for 5 days per one week starting from the day before the treatment with LPS (FIG. 1).

The test system of data set [6] is mice infected with the WR strain of vaccinia virus. It counts as in vivo. The conditions noted are these: WR 1×10^5 pfu; HU 80 mg/kg/day on days 2 to 14, started 2 days after infection.
The subject of data set [7] is mice infected with H1N1 influenza A virus (maPR8). Nature of the data set: Influenza virus-induced sepsis model (II), body weight and survival (Experimental Example 6). The class given is in vivo, BALB/c mice.
In data set [8] the test system is mice with sepsis induced by the Western Reserve strain of vaccinia virus. The conditions noted are these: mouse, in vivo.
The next data set relates to MDCK cells. As to the kind of experiment: Cytotoxicity (CC50) by MTT assay. The conditions noted are these: 72 hours. In general terms: Tetrazolium assays rely on reduction of a dye to a coloured formazan, in cell work by metabolically active cells.
Data set [9] relates to mice given wild-type WR strain of vaccinia virus. As to the kind of experiment: Histological analysis (H&E) of liver and lung tissues after wild-type WR vaccinia virus (Experimental Example 2.2). As to conditions: wild-type WR 1×10^7 pfu intranasal, HU 50 mg/kg, G-CSF 25 μg/kg. The class given is in vivo.
Setting [10] is: co-administration vs virus only.
Where [11] appears, read: WR 1×10^8 pfu + HU, vs virus only.

Read-outs that look alike come from different tables or passages of the source.

For `NC(=O)c1ncn([C@@H]2O[C@H](CO)[C@@H](O)[C@H]2O)n1` [ribavirin], the antiviral effect result with Lee, with H3N2 HongKong and in the data set with H1N1 PR8 was “next clear effect” throughout.
Turning to `CCOC(=O)C1=C[C@@H](OC(CC)CC)[C@H](NC(C)=O)[C@@H](N)C1` [Tamiflu, oseltamivir], the survival result in [1] (mouse, in vivo) is recorded as “survived regardless of the concentration”.
Consider `NC12CC3CC(CC(C3)C1)C2` [AMT, amantadine], for which the antiviral effect result in the data set with Lee, in the data set with H3N2 HongKong and in the data set with H1N1 PR8 was “next clear effect” throughout.
Regarding `NC(=O)NO` [hydroxyurea], the “absolute neutrophil count (ANC)” value was “decreased absolute neutrophil count” in data set [2] (WR high dose (1×10^7 pfu), HU 50 mg/kg/day); “decreased on average and remained stable” in data set [4] (co-administration group, blood). For the same molecule, the survival entry is given as “increased survival” in [2]; “remarkably increased survival” in the data set with mice given LPS (LPS+HU_30: 30 mg/kg/day, day -1 to day 3, once a day); “remarkably increased survival” in the data set on mice given LPS (LPS+HU_60: 60 mg/kg/day, day -1 to day 3, twice a day); 70% in data set [7] (hydroxyurea 50 mg/kg q.d. days -2 to 14, until day 20, n=7). Moreover, the lung tissue histology result in [2] is “improved aspect”. Besides, in [2] (lung tissue, between saline, G-CSF and HU groups), the “infection by immunofluorescence staining for protein A56 (bronchi)” value is “no significant difference between the three groups”. Further, the “systemic inflammation and skin rash lesions (pustules)” value is “remarkably weakened systemic inflammation and inhibition of skin rash lesions such as pustules” in [3] (VV^tk− 1×10^8 pfu + HU 80 mg/kg/day and 30 mg/kg/day, vs virus only); “remarkably weakened systemic inflammation and inhibition of skin rash lesions such as pustules” in data set [4] (WR 1×10^8 pfu + HU 80 mg/kg/day and 30 mg/kg/day, vs virus only). Besides, the absolute neutrophil count result in [3] (co-administration) was “decreased on average and remained stable”. Also, the “number of virus particles” value in data set [3] (co-administration) was “decreased on average and remained stable”. The body temperature entry in [3] (setting [10]) and in [4] (setting [11]) was “did not show any significant increase in body temperature” each time. For the same molecule, the body weight loss entry in [3] (setting [10]) and in data set [4] (setting [11]) was “no difference in body weight loss” each time. The antiviral effect result in the data set with Lee, in the data set with H3N2 HongKong and in the data set on H1N1 PR8 was “did not show any antiviral effect” in each case. Moreover, in [4] (co-administration group, blood), the “absolute lymphocyte count (ALC)” value is “decreased on average and remained stable”. Also, the “white blood cell count (WBC)” value in [4] (co-administration group, blood) was “decreased on average and remained stable”. The “number of virus particles in blood” value is “no significant difference” in data set [4] (day 8 after virus administration, co-administration vs virus only) and “highest number of virus particles” in [8]. The ANC result in the data set with mice given LPS (LPS+HU_30) and with mice given LPS (LPS+HU_60) was “decreased ANC” each time. Also, the “survival until day 12” value in data set [5] (hydroxyurea 30 mg/kg i.p. once a day) turned out to be 17%; in [5] (hydroxyurea 30 mg/kg i.p. twice a day), 43%. Besides, in data set [6], the “protective effect (survival, body weight)” value is “protective effect”. Also, in [1] (mouse, in vivo), the “body weight / condition course” value was “returned to a healthy condition on day 18”. Also, in data set [1] (n=7), the surviving mice is on record as 5 mice. The body weight result in data set [7] (hydroxyurea 50 mg/kg q.d., loss until day 10) is “recovered to the initial weight on day 20”. Besides, the “survival until day 21” value in data set [8] is reported as 40%. In the data set with MDCK cells, the CC50 was 1,561 μg/ml. In addition, the “severity in leakage and exudate levels in the alveoli and ischemic change level in the liver tissue (order of groups)” value in data set [9] was “in the order of the group having received hydroxyurea, the group having received G-CSF, and the control group”.

B1: G-CSF (protein, UniProt P09919 31-207, looked up)
Granulocyte …: TPLGPASSLPQSFLLKCLEQVRKIQGDGAALQEKLVSECATYKLCHPEELVLLGHSLGIPWAPLSSCPSQALQLAGCLSQLHSGLFLYQGLLQALEGISPELGPTLDTLQLDVADFATTIWQQMEELGMAPALQPTQGAMPAFASAFQRRAGGVLVASHLQSFLEVSYRVLRHLAQP
Regarding B1, in [2], the survival result is given as “decreased survival” and the lung tissue histology result is on record as “lung edema was observed”. Also, the “absolute neutrophil count (ANC)” value in data set [2] (WR low or high dose, G-CSF 25 μg/kg/day) is “remarkably increased absolute neutrophil count”. The “time within which all mice died after administration of the WR strain” value in data set [8] is on record as at most 14 days. Further, in data set [9], the “severity in leakage and exudate levels in the alveoli and ischemic change level in the liver tissue (order of groups)” value was “in the order of the group having received hydroxyurea, the group having received G-CSF, and the control group”.

These data come from patent US20230096789A1, “PHARMACEUTICAL COMPOSITION FOR INHIBITING INFLAMMATORY RESPONSE COMPRISING HYDROXYUREA” (priority 2020, published 2023).
